In patent US12551478B2, “Quinoline derivative having indoleamine-2,3-dioxygenase inhibitory activity” (SHENZHEN CHIPSCREEN BIOSCIENCES CO., LTD., priority 2018, dated 2026):
Several values for one entry are separate records, joined by “and”; a condition that tells them apart may be missing. Equal values may be shown once.

Legend:
[1] = biological target: T1, human indoleamine 2,3-dioxygenase 1 (hIDO1) (Homo sapiens, UniProt P14902); assay: Inhibitory activity test at cellular level: IFN-γ-induced HeLa cells, kynurenine colour reaction; assay type: cell-based; conditions: 48 hours; for inhibition at 0.1 µM: 50 ng/ml human IFN-γ, 200 μM L-tryptophan, each test compound 100 nM, read-out: hIDO1-cell base inhibition rate (%); for EC50: human IFN-γ, read-out: hIDO1-cell base EC50
T1 construct: up-regulate the expression of endogenous IDO1 under the induction of human IFN-γ; endogenous in cells; host or cells: HeLa cells stimulated with human IFN-γ
T1 sequence (P14902 whole entry): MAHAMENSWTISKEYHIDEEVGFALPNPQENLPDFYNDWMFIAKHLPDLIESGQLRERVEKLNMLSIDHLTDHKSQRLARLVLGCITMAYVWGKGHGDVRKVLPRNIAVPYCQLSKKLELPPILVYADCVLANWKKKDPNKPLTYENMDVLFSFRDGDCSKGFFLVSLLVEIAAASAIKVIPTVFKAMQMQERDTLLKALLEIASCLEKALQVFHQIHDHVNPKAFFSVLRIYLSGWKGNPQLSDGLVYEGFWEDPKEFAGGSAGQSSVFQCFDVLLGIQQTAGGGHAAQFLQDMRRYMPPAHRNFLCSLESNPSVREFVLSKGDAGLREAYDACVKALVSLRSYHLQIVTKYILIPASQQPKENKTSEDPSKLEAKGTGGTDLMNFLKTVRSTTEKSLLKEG
From the text: The subject of this assay was to comprehensively evaluate different compounds on their enzymatic inhibitory activity in vitro and on cell models against human indoleamine 2,3-dioxygenase 1 (hIDO1).
In the present application, the inventors used Hela cells expressing IDO1 induced by IFN-γ as a model, to test the IDO1 inhibitory activity of the compounds at the cellular level.
HeLa cells are human cervical cancer cell lines, which can up-regulate the expression of endogenous IDO1 under the induction of human IFN-γ. By adding the substrate L-tryptophan to cell culture medium, the enzymatic catalysis product kynurenine in cell supernatant was detected. In this experiment, the cultured Hela cells were used and co-incubated with different concentrations of test compounds under stimulation of human IFN-γ for a specified period of time, and the color reaction method of enzyme product and p-dimethylaminobenzaldehyde was used to detect the effect on IDO enzyme activity of cells treated by the test compounds.
(1) Hela cells were inoculated into 96-well culture plates at an appropriate concentration (about 20,000 cells/well). […] The cells were continuously cultured for 48 hours before detection.
(2) 200 μL of the supernatant in the culture well was pipetted out, added with 40 μL of the pre-prepared 30% (w/v) trichloroacetic acid solution, and reacted at 65° C. for 20 minutes, and then centrifuged at 12000 rpm for 15 minutes.
(3) 100 μL of the supernatant after centrifugation was pipetted out, added into a 96-well flat bottom plate, then added with an equal volume of 2% p-dimethylaminobenzaldehyde in glacial acetic acid and mixed well, and stood at room temperature for 10 minutes.
(4) microplate reader (ELX800NB) was used to detect the absorbance value of each well, and the detection wavelength was 492 nm.
In addition, after the cell enzyme activity inhibition rates of test compounds with different concentration gradients were separately calculated, their cell enzyme activity half inhibition concentrations (EC50) were calculated by using EC50 calculator.
According to the above-mentioned experimental method, the compounds of the present application were subjected to IDO1 enzymatic evaluation at cytological level (the concentration of each test compound was all 100 nM).
According to the above-mentioned experimental method, the compound of the present application was subjected to hIDO1-cell base EC50 detection.

[2] = test system: CT-26 tumor; assay: Efficacy experiment on Balb/c mouse CT-26 tumor model; assay type: in vivo; conditions: method similar to Example 93
[3] = biological target: T2, IDO in HeLa cell (Homo sapiens, UniProt P14902); assay: Inhibition of IDO enzyme activity in HeLa cells by Chidamide in combination with IDO inhibitor; assay type: cell-based; conditions: IFN-γ, 48 hours
T2 construct: 50 ng/ml cytokine human IFN-γ and drugs with different concentrations; endogenous in cells; host or cells: HeLa cells stimulated with human IFN-γ
T2 sequence (P14902 whole entry): as above
Description: HeLa cells were digested by trypsin, collected and counted, then inoculated in a 96-well cell culture plate at 2×10^4 cells per well and cultured at 5% CO2 and 37° C. After the cells were inoculated overnight, the medium was replaced with 200 μM L-tryptophan phenol red-free DMEM medium, and 50 ng/ml cytokine human IFN-γ and drugs with different concentrations (administered according to the group and final concentration shown in FIG. 1) were added simultaneously, the vehicle control (DMSO) and cytokine-free and L-tryptophan negative control wells were set at the same time, and triplicate wells were set. After 48 hours of drug treatment, 200 μL of the supernatant from culture well was pipetted out, added with 40 μL of pre-prepared 30% (w/v) trichloroacetic acid solution, reacted at 65° C. for 20 minutes, and then centrifuged at 12000 rpm for 15 minutes. 100 μL of the supernatant was pipetted out and added into a 96-well flat bottom plate, then equal volume of 2% p-dimethylaminobenzaldehyde in glacial acetic acid was added and mixed well, and stood at room temperature for 10 minutes. The absorbance value of each well at wavelength of 492 nm was read with microplate reader (ELX800NB). After subtracting the cell-free medium OD492-BLK as a blank control from the reading of each well, the OD492-T of each dosing well with subtraction of the detection background and the […] of drug-free positive control well were obtained.
The relative enzyme activity inhibition rate against IDO of each dosing well cell was calculated according to the following formula: enzyme activity inhibition rate against IDO=(OD492−T0−OD492−T)/OD492−T0×100%

[4] = test system: CT-26 tumor; assay: Efficacy experiment on Balb/c mouse CT-26 tumor model; assay type: in vivo; conditions: for average tumor weight: Example 93, FIG. 6: tumors stripped after last administration on 17th day, vehicle group 2.7 g; for Relative tumor inhibition rate (%): Example 93: Chidamide 25 mg/kg, Example 3 20 mg/kg, intragastric once per day, 17 days, tumor volume vs vehicle control
Description: CT-26 cells were subjected to multiplication culture and kept in a logarithmic growth state. After the number of cells met the requirement, the cells were digested with trypsin and collected, washed sufficiently with a large amount of PBS twice to remove trypsin and serum components, centrifuged at room temperature and 800 rpm for 10 minutes, and the supernatant was discarded. The cells were resuspended in FBS-free DMEM medium and adjusted to reach a cell concentration of 3×10^7/mL.
Under aseptic condition, the cell suspension was injected into subcutaneous of back of […] at a dose of 100 μL/needle, one injection per Balb/c mouse. During the injection, 1 mL disposable medical syringe was used to ensure that the position and direction for inserting needle to each mouse was basically the same.
Eight days after cell inoculation, the tumor grew to an average volume of about 100 mm^3. The tumor-bearing mice were randomly divided into four groups (9 mice in each group), namely the vehicle control group, the chidamide group (25 mg/kg, intragastric administration, once per day), Example 3 group (20 mg/kg, intragastric administration, once per day), and the combination of Chidamide and Example 3 group, and then the mice were raised in cages after labeling, the mice was administered according to groups and observed for tumor formation every day. The body weight of each mouse was weighted before administration, and the dose was calculated according to per kilogram of body weight, that was, 10 μL of CMC-Na solution per gram of body weight for the vehicle control group, 10 μL of 2.5 mg/mL Chidamide-CMC-Na suspension per gram of body weight for the chidamide group (25 mg/kg), 10 μL of 2 mg/mL the compound of Example 3-CMC-Na suspension per gram of body weight for the Example 3 group (20 mg/kg), and 10 μL of CMC-Na suspension containing 2.5 mg/ml chidamide and 2 mg/ml the compound of Example 3 per gram of body weight for the combination group were administered intragastrically. The longest diameter of tumor (length) and the widest diameter (width) perpendicular thereto were measured by vernier caliper every 2 days, and the tumor volume was calculated by the formula TS=length×(width)^2/2 and recorded. Each mouse was intragastrically administered once per day at regular time; after the last administration on the 17th day, the mice were sacrificed and the tumors of tumor-bearing mice were stripped and weighed with […].
The relative tumor inhibition rate of each administration group was calculated according to the following formula: Relative tumor inhibition rate=(average tumor volume of the vehicle control group−average tumor volume of the administration group)/average tumor volume of the vehicle control group×100%

[5] = biological target: T3, hERG potassium channel (Homo sapiens, UniProt Q12809); assay: hERG inhibitory activity assay (patch clamp method), HEK293 cells stably expressing hERG; assay type: cell-based; conditions: whole-cell patch clamp, HEK293, 0.3-30 μM, room temperature; read-out: hERG inhibition EC50 value
T3 construct: expressed in transfected cells
T3 sequence (Q12809 whole entry): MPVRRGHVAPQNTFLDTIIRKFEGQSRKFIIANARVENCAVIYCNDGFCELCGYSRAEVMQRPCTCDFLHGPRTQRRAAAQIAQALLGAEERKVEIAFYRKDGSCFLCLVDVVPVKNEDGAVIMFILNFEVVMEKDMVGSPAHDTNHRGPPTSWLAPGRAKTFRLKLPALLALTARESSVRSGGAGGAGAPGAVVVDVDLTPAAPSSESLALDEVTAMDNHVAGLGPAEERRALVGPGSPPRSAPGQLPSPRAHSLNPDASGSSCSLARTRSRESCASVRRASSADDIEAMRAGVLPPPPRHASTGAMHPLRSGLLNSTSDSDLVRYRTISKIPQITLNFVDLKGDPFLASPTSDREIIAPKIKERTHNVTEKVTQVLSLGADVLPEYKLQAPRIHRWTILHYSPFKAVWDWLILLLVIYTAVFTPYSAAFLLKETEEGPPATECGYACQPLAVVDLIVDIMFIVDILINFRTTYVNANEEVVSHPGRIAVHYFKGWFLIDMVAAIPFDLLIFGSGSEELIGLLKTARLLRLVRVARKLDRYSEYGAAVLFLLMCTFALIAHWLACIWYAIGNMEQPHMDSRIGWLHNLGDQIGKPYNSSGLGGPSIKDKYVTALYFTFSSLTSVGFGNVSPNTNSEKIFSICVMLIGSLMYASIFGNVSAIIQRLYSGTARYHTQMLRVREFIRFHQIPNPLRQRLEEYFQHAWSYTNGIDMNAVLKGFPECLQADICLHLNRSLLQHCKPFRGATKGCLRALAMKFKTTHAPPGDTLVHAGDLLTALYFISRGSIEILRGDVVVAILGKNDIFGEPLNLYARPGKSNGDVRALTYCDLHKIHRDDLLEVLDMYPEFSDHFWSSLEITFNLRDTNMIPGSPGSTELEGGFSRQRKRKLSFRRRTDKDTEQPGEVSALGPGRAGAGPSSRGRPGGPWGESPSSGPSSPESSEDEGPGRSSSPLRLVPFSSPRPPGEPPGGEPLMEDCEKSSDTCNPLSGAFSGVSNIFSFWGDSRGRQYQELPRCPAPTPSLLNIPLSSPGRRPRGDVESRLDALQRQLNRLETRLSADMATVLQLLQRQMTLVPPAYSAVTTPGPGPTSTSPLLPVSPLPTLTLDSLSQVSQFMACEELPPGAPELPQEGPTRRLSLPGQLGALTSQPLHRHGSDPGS
From the text: Non-cardiac drugs may cause the prolongation of myocardial action potential duration by inhibiting the hERG (IKr) channel, increasing the possibility of life-threatening torsade de pointes (TdP) ventricular arrhythmia. In this experiment, HEK293 cell line without endogenous IKr current was used as host cell (this cell line was widely used in the detection of hERG) to evaluate the cardiotoxicity of Example 85 in patent CN108203438A and Example 87 of the present application.
(1) HEK293 cell line stably expressing hERG potassium channel was cultured in DMEM medium containing 10% fetal bovine serum and 0.8 mg/mL G418 under the condition of 37° C. and 5% CO2. […]
A capillary glass tube was drawn into a recording electrode with a microelectrode puller. […] Then, slow capacitance compensation was performed, and the membrane capacitance and series resistance were recorded. […]
When the hERG current of the whole-cell recording was stabilized, the drug was administered. […] The current detected for each cell in the compound-free extracellular fluid was used as its own control group. […]
[formula] and then the inhibition rate corresponding to each concentration was calculated
[formula] For each concentration, mean number and standard error were calculated, and the following equation was used to calculate the half inhibitory concentration of each compound: […]

[6] = Example 95, Table 9: chidamide and Example 72 alone and in combination
[7] = Example 91, Table 5: chidamide and Example 72 alone and in combination, FIG. 3
[8] = Example 94, Table 8: chidamide and Example 20 alone and in combination
[9] = Example 96, Table 10: chidamide and Example 87 alone and in combination
[10] = Example 89, Table 3: chidamide and Example 3 alone and in combination, concentrations per FIG. 1
[11] = Example 90, Table 4: chidamide and Example 20 alone and in combination, FIG. 2
[12] = Example 92, Table 6: chidamide and Example 87 alone and in combination, FIG. 4

inhibition at 0.1 µM [1] [%]	EC50 [1] [nM]	Average inhibition rate (%) against IDO [3, 7] [%]	Average inhibition rate (%) against IDO [3, 10] [%]	Average inhibition rate (%) against IDO [3, 11] [%]	Average inhibition rate (%) against IDO [3, 12] [%]	SMILES	Relative tumor inhibition rate (%) [2, 6] [%]	average tumor weight [4] [g]	Relative tumor inhibition rate (%) [4]	Relative tumor inhibition rate (%) [2, 8] [%]	Relative tumor inhibition rate (%) [2, 9] [%]	EC50 [5] [nM]
88	8	36				CC(C(=O)Nc1ccc(Cl)cc1)N1CC2C(C1)C2Nc1ccnc2ccc(F)cc12 (centres unmarked) [Example 72, 2-(6-((6-fluoroquinolin-4-yl)amino)-3-aza-bicyclo[3.1.0]hexan-3-yl)-N-(4-chlorophenyl)propionamide]	7.6					
		23	24	22	23	Nc1cc(F)ccc1NC(=O)c1ccc(CNC(=O)/C=C/c2cccnc2)cc1 [Chidamide, reference compound]	25.4	1.6	33% and 33.6%	30	55	
64	46			16		O=C(Nc1ccc2c(c1)OCO2)N1CC2(CC(Oc3ccnc4ccc(F)cc34)C2)C1 [Example 20, N-(benzo[d][1,3]dioxol-5-yl)-6-((6-fluoroquinolin-4-yl)oxy)-2-aza-spiro[3.3]heptan-2-carboxamide]				8.3		
23					20	O=C(CNc1ccc2c(c1)OCO2)N1CCC(C(O)CC2c3c(F)cccc3-c3cncn32)CC1 (centres unmarked) [Example 87, 2-(benzo[d][1,3]dioxol-5-yl-amino)-1-(4-(2-(6-fluoro-5H-imidazo[5,1-a)isoindol-5-yl)-1-hydroxyethyl)piperidin-1-yl)ethyl-1-one]					45	4600
90	14		31			O=C(Nc1ccc(Cl)cc1)N1CC2(CC(Oc3ccnc4ccc(F)cc34)C2)C1 [Example 3, N-(4-chlorophenyl)-6-((6-fluoroquinolin-4-yl)oxy)-2-aza-spiro[3.3]heptan-2-carboxamide]		2.3	20% and 20.1%			
